Reference: ChEMBL document CHEMBL5728053, “Dihydropyrrolopyridine inhibitors of ROR-gamma” (2020)

Target: T1, Nuclear receptor ROR-gamma (Homo sapiens, UniProt P51449)
T1 sequence (P51449 whole entry): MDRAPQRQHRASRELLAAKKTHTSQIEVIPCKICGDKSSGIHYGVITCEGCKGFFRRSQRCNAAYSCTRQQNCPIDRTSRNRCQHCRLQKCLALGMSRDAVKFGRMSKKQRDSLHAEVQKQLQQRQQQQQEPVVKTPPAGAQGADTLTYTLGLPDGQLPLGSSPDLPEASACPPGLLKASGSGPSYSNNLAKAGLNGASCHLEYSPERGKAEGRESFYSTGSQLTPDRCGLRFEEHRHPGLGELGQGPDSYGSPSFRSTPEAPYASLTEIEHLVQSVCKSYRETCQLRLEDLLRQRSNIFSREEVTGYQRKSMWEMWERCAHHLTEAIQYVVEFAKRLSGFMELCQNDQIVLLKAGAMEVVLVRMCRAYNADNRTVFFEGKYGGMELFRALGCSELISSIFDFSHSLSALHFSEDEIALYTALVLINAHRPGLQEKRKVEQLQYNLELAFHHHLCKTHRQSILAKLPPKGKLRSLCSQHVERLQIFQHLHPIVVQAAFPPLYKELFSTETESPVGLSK
Experiment: RORgammat 5xRORE Assay in Jurkat Cells (Assay 2) : Compounds of the present invention were tested for RORγ inverse agonist activity in a cell-based, transcriptional activity assay. […] (Promega, Cat. # N1021) using KpnI and HindIII restriction sites. […] Luciferase activity in the conditioned supernatants was determined with NanoGlo® assay reagents (Promega, Cat. # N1130).

## CCS(=O)(=O)c1ccc(CNC(=O)c2cnc3c(c2)C(=O)N(Cc2ccc(Cl)cc2)[C@H]3C(C)C)cc1
  IC50: 100 to 1000 nM
